Each structure is given as a SMILES string.

The test system of experiment [1] is ERK phosphorylation in KYSE-520 cells. As to the kind of experiment: Phospho-ERK cellular assay (Advanced phospho-ERK1/2 (Thr202/Tyr204) TR-FRET kit). The settings on record: Homo sapiens, KYSE-520, 2 h, KYSE-520 cells, 2 h at 37° C., TR-FRET; read-out: pERK IC50. Type of experiment: cell-based. Put shortly: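 IC50 values are inflection points of four-parameter logistic fits of percent activity against compound dilution. Compound exposure lasted 2 h at 37° C in KYSE-520 cells. Lysates were probed overnight with Eu-cryptate/d2 antibodies to ERK1/2 phosphorylated at Thr202/Tyr204, so reduced TR-FRET indicates SHP2 inhibition.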

Experiment [2] concerns the target T1, SHP-2 enzyme (Met1-Leu525) (Homo sapiens, UniProt Q06124).
T1 construct: synthetized by Origene, Met1-Leu525, cat #TP750155; purchased Origene TP750155
T1 sequence (Q06124 1-525): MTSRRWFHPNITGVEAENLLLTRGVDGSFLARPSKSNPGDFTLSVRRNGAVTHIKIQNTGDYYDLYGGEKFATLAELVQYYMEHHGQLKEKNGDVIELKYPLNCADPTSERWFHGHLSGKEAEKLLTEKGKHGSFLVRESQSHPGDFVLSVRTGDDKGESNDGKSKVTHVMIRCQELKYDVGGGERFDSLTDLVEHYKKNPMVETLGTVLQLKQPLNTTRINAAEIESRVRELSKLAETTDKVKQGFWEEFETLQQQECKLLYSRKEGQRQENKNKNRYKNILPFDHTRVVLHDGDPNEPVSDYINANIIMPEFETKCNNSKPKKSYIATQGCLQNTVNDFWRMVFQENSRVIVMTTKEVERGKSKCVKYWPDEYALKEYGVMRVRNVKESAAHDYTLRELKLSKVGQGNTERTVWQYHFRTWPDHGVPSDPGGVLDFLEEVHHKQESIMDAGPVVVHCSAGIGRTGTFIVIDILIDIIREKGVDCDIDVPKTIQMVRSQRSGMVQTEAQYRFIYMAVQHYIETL
Kind of experiment: SHP2 inhibition enzymatic assay (DiFMUP substrate, IRS1 peptide activation). Type of experiment: biochemical. As to conditions: SHP2 wt; activated by 500 nM IRS1 peptide; 75 μM DiFMUP substrate. An outline of the steps:
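SHP-2 (Met1-Leu525, 0.5 nM final) preincubated 30 min with compounds and IRS1 activating peptide in HEPES pH 7.2 buffer with NaCl, KCl, EDTA, tween-20, 5 mM DTT. DiFMUP then added for 30 min at room temperature and fluorescence read. IC50 from four-parameter logistic fit of % inhibition.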

For the compound `CC1(N)CCN(c2nc3nc(Sc4ccnc5ccccc45)cnc3[nH]2)CC1` [Example 61, 4-methyl-1-(5-(quinolin-4-ylthio)-1H-imidazo[4,5-b]pyrazin-2-yl)piperidin-4-amine], the IC50 in experiment [1] is 1 to 5 µM; in experiment [2], below 0.5 µM.

Take `N[C@@H]1c2ccccc2CC12CCN(c1nc3ncc(Sc4ccnc(N5CCOCC5)c4Cl)nc3[nH]1)CC2` [Example 180, (S)-1′-(5-((3-chloro-2-morpholinopyridin-4-yl)thio)-1H-imidazo[4,5-b]pyrazin-2-yl)-1,3-dihydrospiro[indene-2,4′-piperidin]-1-amine]: the IC50 in experiment [1] was below 1 µM; in experiment [2] it was below 0.5 µM.

In the case of `N[C@@H]1c2cccnc2CC12CCN(c1nc3ncc(Sc4cc(Cl)c5[nH]c(=O)oc5c4)nc3[nH]1)CC2` [Example 168, (S)-6-((2-(5-amino-5,7-dihydrospiro[cyclopenta[b]pyridine-6,4′-piperidin]-1′-yl)-1H-imidazo[4,5-b]pyrazin-6-yl)thio)-4-chlorobenzo[d]oxazol-2(3H)-one], the IC50 in experiment [1] is above 5 µM; in experiment [2], below 0.5 µM.

For `N#Cc1c(Sc2cnc3[nH]c(N4CCC5(CC4)Cc4ccccc4[C@H]5N)nc3n2)ccnc1N` [Example 215, (S)-2-amino-4-((2-(1-amino-1,3-dihydrospiro[indene-2,4′-piperidin]-1′-yl)-1H-imidazo[4,5-b]pyrazin-5-yl)thio)nicotinonitrile], the results for the IC50 in experiment [1] and in experiment [2] were below 1 µM and below 0.5 µM, respectively.

Turning to `COc1cc(Sc2cnc3[nH]c(N4CCC5(CC4)Cc4ccccc4[C@H]5N)nc3n2)c(Cl)cn1` [Example 242, (S)-1′-(5-((5-chloro-2-methoxypyridin-4-yl)thio)-1H-imidazo[4,5-b]pyrazin-2-yl)-1,3-dihydrospiro[indene-2,4′-piperidin]-1-amine], the IC50 in experiment [1] lay within 1 to 5 µM; in experiment [2] it was 0.5 to 3 µM.

For the compound `Nc1nccc(Sc2cnc3nc(N4CCC5(CC4)Cc4cccc(F)c4[C@H]5N)[nH]c3n2)c1Cl` [Example 203, (S)-1′-(6-((2-amino-3-chloropyridin-4-yl)thio)-1H-imidazo[4,5-b]pyrazin-2-yl)-7-fluoro-1,3-dihydrospiro[indene-2,4′-piperidin]-1-amine], the values for the IC50 in experiment [1] and in experiment [2] were below 1 µM and below 0.5 µM, respectively.

Take `N[C@@H]1c2ccccc2CC12CCN(c1nc3ncc(Sc4ccnc5cccnc45)nc3[nH]1)CC2` [Example 164, (S)-1′-(6-((1,5-naphthyridin-4-yl)thio)-1H-imidazo[4,5-b]pyrazin-2-yl)-1,3-dihydrospiro[indene-2,4′-piperidin]-1-amine]: the IC50 in experiment [1] was below 1 µM; in experiment [2], below 0.5 µM.

Turning to `N[C@@H]1c2ccccc2CC12CCN(c1nc3nc(Sc4ccncc4OC(F)(F)F)cnc3[nH]1)CC2` [Example 226, (S)-1′-(5-((3-(trifluoromethoxy)pyridin-4-yl)thio)-1H-imidazo[4,5-b]pyrazin-2-yl)-1,3-dihydrospiro[indene-2,4′-piperidin]-1-amine], the IC50 in experiment [1] is below 1 µM; in experiment [2] it was below 0.5 µM.

In the case of `N[C@@H]1c2cccnc2CC12CCN(c1nc3nc(Sc4ccnc(Cl)c4C(F)(F)F)cnc3[nH]1)CC2` [Example 262, (S)-1′-(5-((2-chloro-3-(trifluoromethyl)pyridin-4-yl)thio)-1H-imidazo[4,5-b]pyrazin-2-yl)-5,7-dihydrospiro[cyclopenta[b]pyridine-6,4′-piperidin]-5-amine], the IC50 in experiment [1] was below 1 µM; in experiment [2] it was below 0.5 µM.

On to `C[C@@H]1OCC2(CCN(c3nc4nc(Sc5cccnc5C(F)(F)F)cnc4[nH]3)CC2)[C@@H]1N` [Example 96, (3S,4S)-3-methyl-8-(5-((2-(trifluoromethyl)pyridin-3-yl)thio)-1H-imidazo[4,5-b]pyrazin-2-yl)-2-oxa-8-azaspiro[4.5]decan-4-amine], for which the IC50 in experiment [1] was 1 to 5 µM; in experiment [2], below 0.5 µM.

As for `COc1ccncc1Sc1cnc2[nH]c(N3CCC4(CC3)Cc3ccccc3[C@H]4N)nc2n1` [Example 237, (S)-1′-(5-((4-methoxypyridin-3-yl)thio)-1H-imidazo[4,5-b]pyrazin-2-yl)-1,3-dihydrospiro[indene-2,4′-piperidin]-1-amine], the IC50 in experiment [1] was above 5 µM; in experiment [2], below 0.5 µM.

As for `N[C@@H]1c2ccccc2CC12CCN(c1nc3nc(Sc4ccc[nH]c4=O)cnc3[nH]1)CC2` [Example 238, (S)-3-((2-(1-amino-1,3-dihydrospiro[indene-2,4′-piperidin]-1′-yl)-1H-imidazo[4,5-b]pyrazin-5-yl)thio)pyridin-2(1H)-one], the IC50 in experiment [1] is above 5 µM; in experiment [2], below 0.5 µM.

Consider `CNc1nccc(Sc2cnc3[nH]c(N4CCC5(CC4)Cc4ccccc4[C@H]5N)nc3n2)c1C#N` [Example 201, (S)-4-((2-(1-amino-1,3-dihydrospiro[indene-2,4′-piperidin]-1′-yl)-1H-imidazo[4,5-b]pyrazin-5-yl)thio)-2-(methylamino)nicotinonitrile], for which the IC50 in experiment [1] was below 1 µM; in experiment [2] it was below 0.5 µM.

As to `N[C@@H]1c2ccccc2CC12CCN(c1nc3nc(Sc4ccc[n+]([O-])c4C(F)(F)F)cnc3[nH]1)CC2` [Example 141, (S)-3-((2-(1-amino-1,3-dihydrospiro[indene-2,4′-piperidin]-1′-yl)-1H-imidazo[4,5-b]pyrazin-5-yl)thio)-2-(trifluoromethyl)pyridine 1-oxide], the values for the 50% inhibitory concentration (IC50) in experiment [1] and in experiment [2] were below 1 µM and below 0.5 µM, respectively.

Consider `Cn1cc2c(Sc3cnc4[nH]c(N5CCC6(CC5)Cc5ccccc5[C@H]6N)nc4n3)ccnc2n1` [Example 255, (S)-1′-(5-((2-methyl-2H-pyrazolo[3,4-b]pyridin-4-yl)thio)-1H-imidazo[4,5-b]pyrazin-2-yl)-1,3-dihydrospiro[indene-2,4′-piperidin]-1-amine], for which the IC50 in experiment [1] was below 1 µM; in experiment [2] it was below 0.5 µM.

For `Nc1nccc(Sc2cnc3[nH]c(N4CCC5(CC4)Cc4ccccc4[C@H]5N)nc3n2)c1Cl` [Example 132, (S)-1′-(5-((2-amino-3-chloropyridin-4-yl)thio)-1H-imidazo[4,5-b]pyrazin-2-yl)-1,3-dihydrospiro[indene-2,4′-piperidin]-1-amine], the IC50 in experiment [1] was below 1 µM; in experiment [2], below 0.5 µM.

For `N[C@@H]1c2cccnc2CC12CCN(c1nc3ncc(Sc4ccnc(NC5CC5)c4Cl)nc3[nH]1)CC2` [Example 161, (S)-1′-(6-((3-chloro-2-(cyclopropylamino)pyridin-4-yl)thio)-1H-imidazo[4,5-b]pyrazin-2-yl)-5,7-dihydrospiro[cyclopenta[b]pyridine-6,4′-piperidin]-5-amine], the figures for the IC50 in experiment [1] and in experiment [2] were 1 to 5 µM and below 0.5 µM, respectively.

Regarding `Cn1c(N2CCC(C)(N)CC2)nc2nc(Sc3cccnc3C(F)(F)F)cnc21` [Example 52, 4-methyl-1-(1-methyl-5-((2-(trifluoromethyl)pyridin-3-yl)thio)-1H-imidazo[4,5-b]pyrazin-2-yl)piperidin-4-amine], the IC50 is above 5 µM in experiment [1] and below 0.5 µM in experiment [2].

As for `COc1cc2c(cc1F)[C@@H](N)C1(CCN(c3nc4ncc(Sc5ccncc5Cl)nc4[nH]3)CC1)C2` [Example 186, (S)-1′-(6-((3-chloropyridin-4-yl)thio)-1H-imidazo[4,5-b]pyrazin-2-yl)-6-fluoro-5-methoxy-1,3-dihydrospiro[indene-2,4′-piperidin]-1-amine], the IC50 was below 1 µM in experiment [1] and below 0.5 µM in experiment [2].

Take `Nc1nccc(Sc2cnc3nc(N4CCC5(CC4)Cc4cc(F)ccc4[C@H]5N)[nH]c3n2)c1Cl` [Example 199, (S)-1′-(6-((2-amino-3-chloropyridin-4-yl)thio)-1H-imidazo[4,5-b]pyrazin-2-yl)-5-fluoro-1,3-dihydrospiro[indene-2,4′-piperidin]-1-amine]: the IC50 in experiment [1] is below 1 µM; in experiment [2], below 0.5 µM.

As for `N[C@@H]1c2ccccc2CC12CCN(c1nc3nc(Sc4cccnc4N4CCCC4)cnc3[nH]1)CC2` [Example 225, (S)-1′-(5-((2-(pyrrolidin-1-yl)pyridin-3-yl)thio)-1H-imidazo[4,5-b]pyrazin-2-yl)-1,3-dihydrospiro[indene-2,4′-piperidin]-1-amine], the values for the IC50 in experiment [1] and in experiment [2] were above 5 µM and below 0.5 µM, respectively.

Regarding `N[C@@H]1c2cccnc2CC12CCN(c1nc3ncc(Sc4ccnc(Cl)c4Cl)nc3[nH]1)CC2` [Example 171, (S)-1′-(5-((2,3-dichloropyridin-4-yl)thio)-1H-imidazo[4,5-b]pyrazin-2-yl)-5,7-dihydrospiro[cyclopenta[b]pyridine-6,4′-piperidin]-5-amine], the IC50 in experiment [1] was below 1 µM; in experiment [2], below 0.5 µM.

Broadly, the IC50 is the midpoint of a concentration-inhibition curve.

For the origin of these results see patent publication US20220289753A1, “SHP2 INHIBITORS” (IRBM S.P.A., priority 2019, published 2022).
